Where “and” joins values, the source holds several entries; their conditions need not be identical. Identical values can stand only once.
Experiments:
[1] = Log P (n-octanol/water partitioning)
[2] = male, Sprague Dawley, rat, in vivo, sc, 0.5 mg/kg
Method: The plasma levels of drugs released into the blood stream were measured in rodent (Sprague Dawley rats) and non-human primates (Macaca fascicularis, cynomolgus monkeys) following single subcutaneous injections of their respective POZ conjugates with different linkers and drug loading wt %.
Male Sprague Dawley naive rats (age 8-9 weeks, weight 200-250 g) were acquired and placed in rat cages and allowed at least 3 days of acclimatization before the start of the dosing. Each test group contained 3 rats. The POZ conjugates were dissolved 5% dextrose injection and the pH of the solution was adjusted to about 4.0 with 0.1 N hydrochloric acid. Each animal received a single subcutaneous (SC) injection of test article solution equivalent to a dose of 1.5-1.6 mg/kg (based in drug equivalents) and at a volume of 1 mL/kg, and into the left flank using a 23 G BD precision glide needle. […] All blood samples were collected in pre-labeled BD Microtainer tubes containing NaF/disodium EDTA, gently mixed and placed in an ice batch. Plasma was harvested by centrifugation at 3000 rpm for 15 minutes at 4° C. Plasma aliquots of 100 μL were collected in separate tubes containing 10 μL of a solution of 3N HCl acid, gently mixed and immediately frozen and stored at −70° C.
The plasma samples were processed by the ‘protein crash’ method using cold acetonitrile.

## C=C(C)[C@@H]1CCC(C)=C[C@H]1c1c(O)cc(CCCCC)cc1O [Cannabidiol, cannabidiol]
[1]; at 25° C., free drug
  Log Poct/wat: 6.1

## CCCCCCC(C)(C)c1cc(O)c2c(c1)OC(C)(C)[C@H]1CC=C(CO)C[C@H]21 [Dexanabinol, dexanabinol]
[1]
  logP: 7.6

## CCCN(CCc1cccs1)[C@H]1CCc2c(O)cccc2C1 [Rotigotine, rotigotine]
[2]
  time to clear the body: less than 24 hours
physchem
  logP: 4.9

## CCCCCc1cc(O)c2c(c1)OC(C)(C)[C@@H]1CCC(C)=C[C@@H]21 [Δ^9-THC, d9-tetrahydrocannabinol]
[1]; free drug, listed as THC
  Log P: 7.2 and 7.0

From patent US12383626B2, “Polyoxazoline-drug conjugates with novel pharmacokinetic properties” (priority 2019, dated 2025)
